≈ marks a conversion by molar mass, not a printed value. Calls of active or inactive are those of the source. The calls are words filed in the database; no cut-off is given here.
Columns and labels:
Format in all cases: functional
Streptococcus viridans [1] = assay: Antibacterial activity against Streptococcus viridans clinical isolate assessed as susceptibility level by broth microdilution method
[2] = system: Streptococcus constellatus; assay: Antibacterial activity against Streptococcus constellatus clinical isolate assessed as susceptibility level by broth microdilution method
Streptococcus oralis [3] = assay: Antibacterial activity against Streptococcus oralis clinical isolate assessed as susceptibility level by broth microdilution method
[4] = system: Streptococcus intermedius; assay: Antibacterial activity against Streptococcus intermedius clinical isolate assessed as susceptibility level by broth microdilution method
Streptococcus mitis [5] = assay: Antibacterial activity against Streptococcus mitis clinical isolate assessed as susceptibility level by broth microdilution method
Streptococcus agalactiae [6] = assay: Antibacterial activity against Streptococcus agalactiae group B clinical isolate assessed as susceptibility level by broth microdilution method
Streptococcus pyogenes [7] = assay: Antibacterial activity against Streptococcus pyogenes group A clinical isolate assessed as susceptibility level by broth microdilution method
Streptococcus pneumoniae [8] = assay: Antibacterial activity against multidrug-resistant Streptococcus pneumoniae clinical isolate assessed as susceptibility level by broth microdilution method
Streptococcus pneumoniae [9] = assay: Antibacterial activity against penicillin resistant Streptococcus pneumoniae clinical isolate assessed as susceptibility level by broth microdilution method
Streptococcus pneumoniae [10] = assay: Antibacterial activity against penicillin intermediate Streptococcus pneumoniae clinical isolate assessed as susceptibility level by broth microdilution method
[11] = system: Staphylococcus saprophyticus; assay: Antibacterial activity against methicillin resistant coagulase-negative Staphylococcus saprophyticus clinical isolate assessed as susceptibility level by broth microdilution method
[12] = Antibacterial activity against methicillin resistant coagulase-negative Staphylococcus hominis subsp. novobiosepticus clinical isolate assessed as susceptibility level by broth microdilution method
[13] = system: Staphylococcus haemolyticus; assay: Antibacterial activity against methicillin resistant coagulase-negative Staphylococcus haemolyticus clinical isolate assessed as susceptibility level by broth microdilution method
Staphylococcus capitis [14] = assay: Antibacterial activity against methicillin resistant coagulase-negative Staphylococcus capitis clinical isolate assessed as susceptibility level by broth microdilution method
[15] = system: Staphylococcus auricularis; assay: Antibacterial activity against methicillin resistant coagulase-negative Staphylococcus auricularis clinical isolate assessed as susceptibility level by broth microdilution method
[16] = system: Staphylococcus epidermidis; assay: Antibacterial activity against methicillin resistant Staphylococcus epidermidis clinical isolate assessed as susceptibility level by broth microdilution method
Staphylococcus aureus [17] = assay: Antibacterial activity against methicillin resistant Staphylococcus aureus clinical isolate assessed as susceptibility level by broth microdilution method
Streptococcus viridans [18] = assay: Antibacterial activity against Streptococcus viridans clinical isolate by broth microdilution method
[19] = system: Streptococcus constellatus; assay: Antibacterial activity against Streptococcus constellatus clinical isolate by broth microdilution method
Streptococcus oralis [20] = assay: Antibacterial activity against Streptococcus oralis clinical isolate by broth microdilution method
[21] = system: Streptococcus intermedius; assay: Antibacterial activity against Streptococcus intermedius clinical isolate by broth microdilution method
Streptococcus mitis [22] = assay: Antibacterial activity against Streptococcus mitis clinical isolate by broth microdilution method
Streptococcus agalactiae [23] = assay: Antibacterial activity against Streptococcus agalactiae group B clinical isolate by broth microdilution method
Streptococcus pyogenes [24] = assay: Antibacterial activity against Streptococcus pyogenes group A clinical isolate by broth microdilution method
Streptococcus pneumoniae [25] = assay: Antibacterial activity against multidrug-resistant Streptococcus pneumoniae clinical isolate by broth microdilution method
Streptococcus pneumoniae [26] = assay: Antibacterial activity against penicillin resistant Streptococcus pneumoniae clinical isolate by broth microdilution method
Streptococcus pneumoniae [27] = assay: Antibacterial activity against penicillin intermediate Streptococcus pneumoniae clinical isolate by broth microdilution method
[28] = system: Staphylococcus saprophyticus; assay: Antibacterial activity against methicillin resistant coagulase-negative Staphylococcus saprophyticus clinical isolate by broth microdilution method
[29] = Antibacterial activity against methicillin resistant coagulase-negative Staphylococcus hominis subsp. novobiosepticus clinical isolate by broth microdilution method
[30] = system: Staphylococcus haemolyticus; assay: Antibacterial activity against methicillin resistant coagulase-negative Staphylococcus haemolyticus clinical isolate by broth microdilution method
Staphylococcus capitis [31] = assay: Antibacterial activity against methicillin resistant coagulase-negative Staphylococcus capitis clinical isolate by broth microdilution method
[32] = system: Staphylococcus auricularis; assay: Antibacterial activity against methicillin resistant coagulase-negative Staphylococcus auricularis clinical isolate by broth microdilution method
[33] = system: Staphylococcus epidermidis; assay: Antibacterial activity against methicillin resistant Staphylococcus epidermidis clinical isolate by broth microdilution method
Staphylococcus aureus [34] = assay: Antibacterial activity against methicillin resistant Staphylococcus aureus clinical isolate by broth microdilution method; details: for MIC50 / MIC90: Staphylococcus aureus

## CC[C@H]1OC(=O)[C@H](C)[C@@H](O[C@H]2C[C@@](C)(OC)[C@@H](O)[C@H](C)O2)[C@H](C)[C@@H](O[C@@H]2O[C@H](C)C[C@H](N(C)C)[C@H]2O)[C@](C)(O)C[C@@H](C)C(=O)[C@H](C)[C@@H](O)[C@]1(C)O [ERYTHROMYCIN]
Streptococcus viridans [1]
  Activity: 63%
[2]
  Activity: 63%
Streptococcus oralis [3]
  Activity: 63%
[4]
  Activity: 63%
Streptococcus mitis [5]
  Activity: 63%
Streptococcus agalactiae [6]
  Activity: 62%
Streptococcus pyogenes [7]
  Activity: 89%
Streptococcus pneumoniae [8]
  Activity: 13%
Streptococcus pneumoniae [9]
  Activity: 20%
Streptococcus pneumoniae [10]
  Activity: 42%
[11]
  Activity: 18%
[12]
  Activity: 18%
[13]
  Activity: 18%
Staphylococcus capitis [14]
  Activity: 18%
[15]
  Activity: 18%
[16]
  Activity: 15%
Staphylococcus aureus [17]
  Activity: 2%
Streptococcus viridans [18]
  MIC: ≤ 0.015 µg/mL
  MIC50: inactive
  MIC90: inactive
[19]
  MIC: ≤ 0.015 µg/mL
  MIC50: inactive
  MIC90: inactive
Streptococcus oralis [20]
  MIC: ≤ 0.015 µg/mL
  MIC50: inactive
  MIC90: inactive
[21]
  MIC: ≤ 0.015 µg/mL
  MIC50: inactive
  MIC90: inactive
Streptococcus mitis [22]
  MIC: ≤ 0.015 µg/mL
  MIC50: inactive
  MIC90: inactive
Streptococcus agalactiae [23]
  MIC50: 0.06 µg/mL (≈ 0.0818 µM)
  MIC90: > 1 µg/mL
Streptococcus pyogenes [24]
  MIC50: 0.03 µg/mL (≈ 0.0409 µM)
  MIC90: > 1 µg/mL
Streptococcus pneumoniae [25]
  MIC: 0.03 µg/mL (≈ 0.0409 µM)
Streptococcus pneumoniae [26]
  MIC: 0.03 µg/mL (≈ 0.0409 µM)
Streptococcus pneumoniae [27]
  MIC50: > 1 µg/mL
  MIC90: > 1 µg/mL
[28]
  MIC50: > 16 µg/mL
  MIC90: > 16 µg/mL
[29]
  MIC50: > 16 µg/mL
  MIC90: > 16 µg/mL
[30]
  MIC50: > 16 µg/mL
  MIC90: > 16 µg/mL
Staphylococcus capitis [31]
  MIC50: > 16 µg/mL
  MIC90: > 16 µg/mL
[32]
  MIC50: > 16 µg/mL
  MIC90: > 16 µg/mL
[33]
  MIC50: > 16 µg/mL
  MIC90: > 16 µg/mL
Staphylococcus aureus [34]
  Activity: 2%
  MIC50: > 16 µg/mL
  MIC90: > 16 µg/mL

## CC[C@H]1OC(=O)[C@H](C)C(=O)[C@H](C)[C@@H](O[C@@H]2O[C@H](C)C[C@H](N(C)C)[C@H]2O)[C@](C)(OC)C[C@@H](C)C(=O)[C@H](C)[C@H]2N(CCCCn3cnc(-c4cccnc4)c3)C(=O)O[C@]12C [TELITHROMYCIN]
Streptococcus pneumoniae [10]
  Activity: 100%
[11]
  Activity: 29%
[12]
  Activity: 29%
[13]
  Activity: 29%
Staphylococcus capitis [14]
  Activity: 29%
[15]
  Activity: 29%
[16]
  Activity: 43%
Staphylococcus aureus [17]
  Activity: 83%
Streptococcus viridans [18]
  MIC: 0.004 µg/mL (≈ 0.00493 µM)
  MIC50: inactive
  MIC90: inactive
[19]
  MIC: 0.004 µg/mL (≈ 0.00493 µM)
  MIC50: inactive
  MIC90: inactive
Streptococcus oralis [20]
  MIC: 0.004 µg/mL (≈ 0.00493 µM)
  MIC50: inactive
  MIC90: inactive
[21]
  MIC: 0.004 µg/mL (≈ 0.00493 µM)
  MIC50: inactive
  MIC90: inactive
Streptococcus mitis [22]
  MIC: 0.004 µg/mL (≈ 0.00493 µM)
  MIC50: inactive
  MIC90: inactive
Streptococcus agalactiae [23]
  MIC50: 0.015 µg/mL (≈ 0.0185 µM)
  MIC90: 0.25 µg/mL (≈ 0.308 µM)
Streptococcus pyogenes [24]
  MIC50: 0.015 µg/mL (≈ 0.0185 µM)
  MIC90: 0.015 µg/mL (≈ 0.0185 µM)
Streptococcus pneumoniae [25]
  MIC50: 0.06 µg/mL (≈ 0.0739 µM)
  MIC90: 0.5 µg/mL (≈ 0.616 µM)
Streptococcus pneumoniae [26]
  MIC50: 0.06 µg/mL (≈ 0.0739 µM)
  MIC90: 0.5 µg/mL (≈ 0.616 µM)
Streptococcus pneumoniae [27]
  MIC50: 0.03 µg/mL (≈ 0.0369 µM)
  MIC90: 0.12 µg/mL (≈ 0.148 µM)
[28]
  MIC50: > 8 µg/mL
  MIC90: > 8 µg/mL
[29]
  MIC50: > 8 µg/mL
  MIC90: > 8 µg/mL
[30]
  MIC50: > 8 µg/mL
  MIC90: > 8 µg/mL
Staphylococcus capitis [31]
  MIC50: > 8 µg/mL
  MIC90: > 8 µg/mL
[32]
  MIC50: > 8 µg/mL
  MIC90: > 8 µg/mL
[33]
  MIC50: 0.5 µg/mL (≈ 0.616 µM)
  MIC90: > 8 µg/mL
Staphylococcus aureus [34]
  Activity: 83%
  MIC50: 0.25 µg/mL (≈ 0.308 µM)
  MIC90: 16 µg/mL (≈ 19.7 µM)

Reference: ChEMBL document CHEMBL1275440, “In vitro activity of telavancin against resistant gram-positive bacteria” (2008)
